Here are results for 31 compounds from PubChem BioAssay (NCI).

Values joined by “and” are separate entries in the source; they are usually repeats but may differ in a detail not shown here. Identical values can stand only once.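 Test compounds were applied to cells in 96-well plates for 48 hours at 5 doses. At the GI50, growth is halved. Definition used: TGI = concentration required for complete inhibition of growth.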 Bounds are passed on as bounds.

Common to all, as to assay: NCI tumour cell line growth inhibition, 48 h
For assay [1], the system named is A549 NSCLC.
Assay [2] relates to BT-549 breast.
In assay [3] the test system is CCRF-CEM leukemia.
Assay [4] concerns HCC-2998 colon.
For assay [5], the system named is LOX IMVI melanoma.
The subject of assay [6] is MDA-N.
In assay [7] the test system is NCI-H226 lung.
Assay [8] deals with SF-539 CNS.
For assay [9], the system named is UACC-62 melanoma.
Assay [10] relates to KM20L2 colon.

For the compound `C=C(Cl)COC(=O)Nc1cccc(Cl)c1`, the TGI was over 100 µM in assay [1]; 87.2 µM in assay [2]; over 100 µM in assay [3]; over 100 µM in assay [4]; over 100 µM in assay [5]; over 100 µM in [6]. The values for the TGI in [7], in assay [8] and in [9] were over 100 µM, over 100 µM and 59.5 µM, respectively.

Consider `COc1cc2c(c(OC)c1OC)-c1ccc(SC)c(=O)cc1[C@@H](NC(=O)c1ccc(OC(C)=O)cc1)CC2`, for which the TGI in assay [1] was over 100 µM; in assay [3] it was over 100 µM; in assay [4] it was 0.0549 µM; in assay [10] it was 0.0358 µM; in [5] it was 0.0539 µM; in assay [7], 0.0528 µM. The TGI in [8] came out at 0.0357 µM; in assay [9], 26.9 µM.

With `Cc1ncc([N+](=O)[O-])n1CCNS(=O)(=O)CCCn1ccnc1[N+](=O)[O-]`, the TGI in assay [1], in assay [2], in [3], in [5], in [6] and in [7] was over 100 µM in each case. The TGI in [8] and in [9] was over 100 µM in each case.

As to `CC1=NC2(CCCCC2)N(Cl)C(=O)C1SC#N` (stereo not given), the TGI in assay [1] came to 24.8 µM; in assay [2] it was 28.5 µM; in assay [3], 12.8 µM; in [4], 42 µM; in assay [5] it was 35.4 µM; in [6], 32.2 µM. In addition, the TGI was determined as 40.1 µM in assay [7], 35.9 µM in assay [8] and 27.2 µM in assay [9].

Take `S=c1[nH]c(=S)c2sc(=S)n(-c3ccccc3)c2[nH]1`: the TGI in assay [1], in assay [3], in assay [4], in assay [10], in assay [5] and in [7] was over 100 µM in each case. The TGI in assay [8] and in assay [9] was over 100 µM each time.

Take `O=C1C(Cl)=C(Oc2ccc([N+](=O)[O-])cc2)C(=O)c2c(O)ccc(O)c21`: the TGI in assay [1] was over 100 µM; in assay [2] it was over 100 µM; in assay [3] it was 12.9 µM; in [4], over 100 µM; in assay [6] it was over 31.6 µM; in assay [7], over 100 µM. In addition, the TGI in assay [8] and in assay [9] was over 100 µM throughout.

On to `COC(=O)/C=C(C)/C=C/c1cc(C(C)=O)c(C)o1`, for which the TGI in assay [1], in [3], in assay [4], in assay [10], in assay [5] and in [8] was over 100 µM each time. In assay [9], this compound came in with a TGI of over 100 µM.

Take `c1ccc(C(=NNc2nc3ccccc3o2)c2ccccn2)nc1`: the GI50 was 0.108 µM in [1]; 153 nM in assay [2]; 0.033 µM in assay [3]; 97.2 nM in [4]; 53.9 nM in [5]; 0.0628 µM in assay [7]. The GI50 in [8] is 112 nM; in [9], 0.0863 µM. Besides, the TGI is > 34.5 µM and 16.5 µM in assay [1]; 18.4 µM and 1.96 µM in assay [4]; 2.45 µM and 0.702 µM in assay [5]; 25.9 µM in assay [6]; 0.756 µM and 0.413 µM in assay [9].

`N#Cc1ccccc1NC(=O)/C(=N\NC(=O)c1ccncc1)C(c1cnc2ccc([N+](=O)[O-])cc2n1)[N+](=O)[O-]` (stereo not given): the TGI in [1], in assay [2], in assay [3], in assay [4], in [5] and in assay [6] was over 100 µM in each case. In addition, the TGI in assay [7], in assay [8] and in assay [9] was over 100 µM in each case.

As for `COc1ccc(C2c3cc4c(cc3OC(NNC(N)=O)C2C)OCO4)cc1` (stereo not given), the TGI in [1] was over 100 µM; in assay [2], over 95.7 µM; in assay [3] it was over 29.4 µM; in assay [4], 35 µM; in assay [5], over 100 µM; in assay [6], 6.86 µM. For the same compound, the TGI was over 76.2 µM in [7], 4.86 µM in [8] and over 70.2 µM in assay [9].

For `CCCCCCCCCCC(C)CCCCCCC(=O)OCC(COP(=O)([O-])OCC[N+](C)(C)C)OC(=O)CCCCCCC(C)CCCCCCCCCC` (stereo not given), the TGI in assay [1], in assay [3], in [4], in assay [10], in assay [5] and in assay [7] was over 100 µM each time. Further, the TGI in assay [9] was over 100 µM.

For the compound `Cc1nc2c(=O)[nH]c(=O)n(C)c2[nH]c1=O`, the TGI in assay [1], in assay [4], in [10], in assay [5], in assay [7] and in assay [9] was over 100 µM in each case.

As to `C[C@]12CC[C@H](O)CC1=CC[C@@H]1C2CC[C@]2(C)c3nn(-c4ccc(F)cc4)nc3CC12` (stereo not given in full), the TGI in assay [1] was over 100 µM; in [2], over 100 µM; in [3] it was over 100 µM; in assay [4] it was 72.7 µM; in assay [6] it was over 100 µM; in [7] it was over 100 µM. Moreover, the TGI in assay [8] and in [9] was over 100 µM in each case.

As to `CC1Cc2c(N)nc(NN)nc2NC1=O` (stereo not given), the TGI in assay [1], in assay [3], in assay [10], in assay [5], in [7] and in assay [8] was over 100 µM in each case. In assay [9], this compound showed a TGI of over 100 µM.

As for `[N-]=[N+]=NC1=NNC2(C(=O)N1)c1ccccc1-c1ccccc12`, the TGI in assay [1], in assay [2], in assay [3], in assay [4], in assay [5] and in [6] was over 100 µM throughout. For the same compound, the TGI in assay [7], in assay [8] and in assay [9] was over 100 µM in each case.

As for `C=CC[C@H]1C[C@@]2(C)OC[C@H](C(C)C)N2C1=O`, the TGI in assay [1], in [3], in assay [10], in [5], in [8] and in [9] was over 100 µM each time.

`Cc1cccc(C)c1NC(=O)CCCC(=O)CC(=O)/C=C/c1ccccc1`: the TGI in assay [1], in assay [3], in [10], in [5], in [8] and in assay [9] was over 100 µM in each case.

In the case of `CCCN=C1Nc2ccccc2[C@@H]2N(C)c3ccccc3C(C)C[C@]12C` (stereo not given in full), the TGI in [1] is over 100 µM; in assay [3], 62.9 µM; in assay [4] it was 26.3 µM; in [5], 27.7 µM; in [6] it was 38.7 µM; in assay [7] it was 73.4 µM. Also, the results for the TGI in assay [8] and in assay [9] were 30.5 µM and 33.2 µM, respectively.

Take `Cc1cc(O)c(C(=O)CC2(O)C(=O)Nc3c(Cl)cc(Cl)cc32)c(=O)o1` (stereo not given): the TGI in assay [1], in assay [3], in assay [4], in assay [10], in assay [7] and in assay [8] was over 100 µM throughout. Besides, in assay [9], the TGI is over 100 µM.

`FC(F)(F)c1cccc(COCCN2CCN(Cc3cccc(C(F)(F)F)c3)CC2)c1`: the TGI was determined as 30.9 µM in assay [1]; 29.6 µM in assay [2]; 46.6 µM in [3]; 32.7 µM in [4]; 34.4 µM in assay [6]; 35.8 µM in [7]. Also, the TGI is 39 µM in assay [8] and 28.6 µM in assay [9].

Consider `Cc1ccccc1C(=O)C#Cc1cn(C2CC(O)C(CO)O2)c(=O)[nH]c1=O` (stereo not given), for which the TGI is over 100 µM in assay [1]; over 100 µM in assay [2]; 67.3 µM in assay [3]; over 100 µM in assay [4]; over 100 µM in [6]; over 100 µM in assay [7]. In addition, the TGI in [8] and in assay [9] was over 100 µM in each case.

Take `CC1(C)COCN1COC1CCCCC1`: the TGI in assay [1], in assay [2], in assay [3], in assay [4], in assay [6] and in [7] was over 100 µM in each case. The TGI in assay [8] and in [9] was over 100 µM throughout.

For `COc1ccc(C(=O)C(c2ccc(OC)cc2)C2(O)C(=O)Nc3c(C)cc(Cl)cc32)cc1` (stereo not given), the TGI is over 100 µM in [1]; 47.7 µM in [3]; over 100 µM in assay [4]; over 100 µM in assay [10]; over 100 µM in [7]; over 100 µM in assay [8]. The compound also showed a TGI in assay [9] of 54.2 µM.

For `COc1ccccc1C1=C2C(=O)N(C)C(c3ccccc3OC)=C2C(=O)N1C`, the TGI in assay [1], in assay [2], in [3], in [4], in assay [5] and in assay [6] was over 100 µM throughout. Besides, the figures for the TGI in assay [7], in assay [8] and in assay [9] were over 100 µM, 64.2 µM and over 100 µM, respectively.

For `O=C1/C(=C/c2ccc(O)c([N+](=O)[O-])c2)CCC/C1=C\c1ccc(O)c([N+](=O)[O-])c1`, the GI50 is 25.5 µM in assay [1]; 2830 nM in assay [2]; 14.9 µM in assay [3]; 25.9 µM in [6]; 33.7 µM in assay [7]; 14.1 µM in [9]. Also, the TGI was 32.4 µM and 91.7 µM in assay [1]; 36.6 µM and 9.46 µM in [2]; 50 µM and 56.2 µM in [3]; 16 µM in assay [4]; 23.2 µM in assay [5]; 19.9 µM and > 100 µM in assay [6]. In addition, the TGI in assay [7] is 24.7 µM and > 100 µM; in assay [8], 50 µM; in [9] it was 15.5 µM and 37.2 µM.

With `Nc1nc2cc(CNc3ccc(C(=O)O)cc3)ccc2nc1-c1ccccc1`, the TGI in assay [1], in assay [2], in [3], in [4], in assay [5] and in [6] was over 100 µM in each case. Besides, the TGI in assay [7] and in [8] was over 100 µM in each case.

In the case of `CC(C)=CC(=O)Oc1ccc([N+](=O)[O-])cc1`, the TGI in assay [1], in assay [3], in assay [4], in assay [10], in assay [7] and in assay [8] was over 100 µM each time. Also, the TGI in assay [9] was over 100 µM.

As to `N#CCc1ccc(C(C#N)/C(CCCC(=O)Nc2cccc([N+](=O)[O-])c2)=N\NC(=O)NN)cc1` (stereo not given), the TGI in assay [1], in assay [3], in assay [4], in assay [10], in assay [7] and in [8] was over 100 µM in each case. In addition, the TGI in assay [9] was over 100 µM.

Take `OC(C1=C/C(=C\c2ccncc2)c2ccccc21)c1ccncc1` (stereo not given): the TGI in assay [1] was 41.8 µM; in assay [2], 57.9 µM; in [3] it was 45.9 µM; in assay [4] it was 22.3 µM; in assay [5], 32 µM; in [6] it was 30.4 µM. Besides, the TGI in [7] came to 31.1 µM; in assay [8], 32 µM; in assay [9] it was 24 µM.

As for `CN(C)CCCN=C(N)N`, the TGI in [1], in assay [2], in [3], in assay [5], in assay [6] and in assay [7] was over 100 µM throughout. In addition, the TGI in assay [8] and in [9] was over 100 µM in each case.

For `O=c1[nH]c2nccnc2c2c([N+](=O)[O-])cccc12`, the TGI in [1], in assay [2], in assay [3], in assay [4], in assay [5] and in assay [6] was over 100 µM in each case. For the same compound, the TGI in [7], in assay [8] and in assay [9] was over 100 µM each time.
